The source of these data is ChEMBL document CHEMBL2331198, “Identification of small-molecule inhibitors of the human S100B-p53 interaction and evaluation of their activity in human melanoma cells” (Bioorg Med Chem, 2013).

Active and inactive are the calls of the source. The rule behind the calls is not given here.

Experiment [1] addresses T1, Protein S100-B (Homo sapiens) (UniProt P04271).
T1 sequence (whole entry): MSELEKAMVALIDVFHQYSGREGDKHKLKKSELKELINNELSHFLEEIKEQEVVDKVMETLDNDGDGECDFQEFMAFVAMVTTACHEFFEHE
The experiment in a line: Inhibition of human S100B/humanTAMRA-p53(367-388) interaction assessed as inhibition rate at 50 uM by fluorescence polarization assay. Background: Fluorescence polarisation rises when a labelled molecule tumbles more slowly, as on binding a larger partner.

In another experiment the target is T2, Protein S100-B (Homo sapiens, UniProt P04271).
T2 sequence (P04271 whole entry): T1 sequence (whole entry)
The experiment in a line: Inhibition of human S100B/human TAMRA-p53(367-388) interaction by fluorescence polarization assay.

The subject of the next experiment is WM-115. The experiment in a line: Cytotoxicity against human WM115 cells assessed as growth inhibition measured after 72 hrs by crystal violet assay. It counts as functional, cell-based. As to conditions: WM-115, 72 h.
Experiment [2] deals with T1, Protein S100-B (Homo sapiens). Description: Inhibition of human S100B/humanTAMRA-p53(367-388) interaction by In situ proximity ligation assay.
For experiment [3] the target is unchanged. The experiment in a line: Inhibition of human S100B/humanTAMRA-p53(367-388) interaction assessed as inhibition rate at 93 uM by fluorescence polarization assay.

Broadly, the inhibition is the change of the read-out against control, counted positive when it falls. What is called IC50 is the concentration that gives 50% inhibition. A word on the Ki: it is the equilibrium dissociation constant of an inhibitor or competing ligand from its target. Read a high Ki as weaker binding.

As to `CN1CCN(c2ccc(N)c(N3CCN(C)CC3)c2)CC1`, in experiment [1], the inhibition is less than 50%.

Turning to `Nc1cc(N2CCCCC2)ccc1N1CCCCC1`, at Protein S100-B, 31.5 µM corresponded to half-maximal inhibition (IC50) and the inhibition constant Ki was 25.1 µM. In addition, the 50% inhibitory concentration (IC50) with WM-115 turned out to be 36.4 µM.

`COc1ccc(/C=N/c2ccc(O)cc2)cc1`: the IC50 against Protein S100-B was 36.3 µM.

As for `Nc1ccc(N2CCCCC2)cc1N1CCCCC1`, at Protein S100-B, the IC50 stood at 2 µM and the inhibition constant Ki was less than 1 µM. For the same compound, the IC50 in the experiment with WM-115 was found to be 4.9 µM. Also, the inhibition entry in experiment [2] is “Active”.

At Protein S100-B, `CCN(CC)c1ccc(N)c(C)c1` displayed an IC50 of 8.4 µM and an inhibitory constant (Ki) of 5 µM. The IC50 in the experiment on WM-115 was 8.5 µM.

`Nc1ccc(N2CCNCC2)cc1`: the inhibition in experiment [1] was less than 50%.

Consider `N=C(N)c1ccc(OCCCCCOc2ccc(C(=N)N)cc2)cc1` [PENTAMIDINE], for which the half-maximal inhibitory concentration (IC50) against Protein S100-B was more than 100 µM; in the experiment on WM-115, 4.8 µM. In addition, in experiment [3], the inhibition amounted to 14.2%.
